Results taken from paper PMC7407272, “Induction of Lysosome Membrane Permeabilization as a Therapeutic Strategy to Target Pancreatic Cancer Stem Cells” (Cancers, 2020).

Experiments:
PIP5K1C = target: T1, PIP5K1C (Homo sapiens, UniProt O60331); assay: KINOMEscan; type: binding; conditions: read-out: % Ctrl
T1 construct: purchased DiscoveRx KINOMEscan

MAP3K15 = target: T2, MAP3K15 (Homo sapiens, UniProt Q6ZN16); assay: KINOMEscan; type: binding; conditions: read-out: % Ctrl
T2 construct: purchased DiscoveRx KINOMEscan

ABL1(F317L)-nonP = target: T3, ABL1(F317L)-nonP (Homo sapiens, UniProt P00519, F317L); assay: KINOMEscan; type: binding; conditions: read-out: % Ctrl
T3 construct: purchased DiscoveRx KINOMEscan

ROCK1 = target: T4, ROCK1 (Homo sapiens, UniProt Q13464); assay: KINOMEscan; type: binding; conditions: read-out: % Ctrl
T4 construct: purchased DiscoveRx KINOMEscan

GRK4 = target: T5, GRK4 (Homo sapiens, UniProt P32298); assay: KINOMEscan; type: binding; conditions: read-out: % Ctrl
T5 construct: purchased DiscoveRx KINOMEscan

STK36 = target: T6, STK36 (Homo sapiens, UniProt Q9NRP7); assay: KINOMEscan; type: binding; conditions: read-out: % Ctrl
T6 construct: purchased DiscoveRx KINOMEscan

MEK1 = target: T7, MEK1 (Homo sapiens, UniProt Q02750); assay: KINOMEscan; type: binding; conditions: read-out: % Ctrl
T7 construct: purchased DiscoveRx KINOMEscan

PYK2 = target: T8, PYK2 (Homo sapiens, UniProt Q14289); assay: KINOMEscan; type: binding; conditions: read-out: % Ctrl
T8 construct: purchased DiscoveRx KINOMEscan

ABL1(M351T)-P = target: T9, ABL1(M351T)-P (Homo sapiens, UniProt P00519, M351T); assay: KINOMEscan; type: binding; conditions: read-out: % Ctrl
T9 construct: purchased DiscoveRx KINOMEscan

LIMK1 = target: T10, LIMK1 (Homo sapiens, UniProt P53667); assay: KINOMEscan; type: binding; conditions: read-out: % Ctrl
T10 construct: purchased DiscoveRx KINOMEscan

CAMK2B = target: T11, CAMK2B (Homo sapiens, UniProt Q13554); assay: KINOMEscan; type: binding; conditions: read-out: % Ctrl
T11 construct: purchased DiscoveRx KINOMEscan

TRPM6 = target: T12, TRPM6 (Homo sapiens, UniProt Q9BX84); assay: KINOMEscan; type: binding; conditions: read-out: % Ctrl
T12 construct: purchased DiscoveRx KINOMEscan

CSNK1G2 = target: T13, CSNK1G2 (Homo sapiens, UniProt P78368); assay: KINOMEscan; type: binding; conditions: read-out: % Ctrl
T13 construct: purchased DiscoveRx KINOMEscan

PIK3CA(H1047Y) = target: T14, PIK3CA(H1047Y) (Homo sapiens, UniProt P42336, H1047Y); assay: KINOMEscan; type: binding; conditions: read-out: % Ctrl
T14 construct: purchased DiscoveRx KINOMEscan

CIT = target: T15, CIT (Homo sapiens, UniProt O14578); assay: KINOMEscan; type: binding; conditions: read-out: % Ctrl
T15 construct: purchased DiscoveRx KINOMEscan

ULK2 = target: T16, ULK2 (Homo sapiens, UniProt Q8IYT8); assay: KINOMEscan; type: binding; conditions: read-out: % Ctrl
T16 construct: purchased DiscoveRx KINOMEscan

AURKC = target: T17, AURKC (Homo sapiens, UniProt Q9UQB9); assay: KINOMEscan; type: binding; conditions: read-out: % Ctrl
T17 construct: purchased DiscoveRx KINOMEscan

RET(V804M) = target: T18, RET(V804M) (Homo sapiens, UniProt P07949, V804M); assay: KINOMEscan; type: binding; conditions: read-out: % Ctrl
T18 construct: purchased DiscoveRx KINOMEscan

HIPK1 = target: T19, HIPK1 (Homo sapiens, UniProt Q86Z02); assay: KINOMEscan; type: binding; conditions: read-out: % Ctrl
T19 construct: purchased DiscoveRx KINOMEscan

CAMKK2 = target: T20, CAMKK2 (Homo sapiens, UniProt Q96RR4); assay: KINOMEscan; type: binding; conditions: read-out: % Ctrl
T20 construct: purchased DiscoveRx KINOMEscan

PCTK3 = target: T21, PCTK3 (Homo sapiens, UniProt Q07002); assay: KINOMEscan; type: binding; conditions: read-out: % Ctrl
T21 construct: purchased DiscoveRx KINOMEscan

PKN1 = target: T22, PKN1 (Homo sapiens, UniProt Q16512); assay: KINOMEscan; type: binding; conditions: read-out: % Ctrl
T22 construct: purchased DiscoveRx KINOMEscan

PDAC2 cells = assay: CD133 flow cytometry; type: cell-based, human; conditions: 1.25 or 2.5 µM, 72 h
Description: Cells were analyzed with a 4-laser Attune NxT Acoustic Cytometer (ThermoFisher Scientific). […] For lysosomes quantification, Acridine Orange (AO) (A1301, Thermo Fisher Scientific, Waltham, MA, USA) or Lysotracker Deep Red (DR) (L12492, Molecular probes, Life Technologies, Waltham, MA, USA) were used. AO fluorescence was assessed with two combinations of excitation and emission spectra: BL1 (Ex488/Em695/40, equal to the far-red channel (>670 nm)) and BL3 (Ex488/Em695/40, equal to the far-red channel (>670 nm)) Lysotracker DR fluorescence was assessed with RL1 (Ex638/Em670/14). […] For all assays, DAPI was used to mark and exclude dead cells, and data were analyzed using the software FlowJo v9.3 (Tree Star Inc., Ashland, OR, USA).
Figure S3. […] Apoptosis was determined 72 h post treatment initiation. […]

EPHA1 = target: T23, EPHA1 (Homo sapiens, UniProt P21709); assay: KINOMEscan; type: binding; conditions: read-out: % Ctrl
T23 construct: purchased DiscoveRx KINOMEscan

NEK2 = target: T24, NEK2 (Homo sapiens, UniProt P51955); assay: KINOMEscan; type: binding; conditions: read-out: % Ctrl
T24 construct: purchased DiscoveRx KINOMEscan

FGR = target: T25, FGR (Homo sapiens, UniProt P09769); assay: KINOMEscan; type: binding; conditions: read-out: % Ctrl
T25 construct: purchased DiscoveRx KINOMEscan

WEE1 = target: T26, WEE1 (Homo sapiens, UniProt P30291); assay: KINOMEscan; type: binding; conditions: read-out: % Ctrl
T26 construct: purchased DiscoveRx KINOMEscan

PRKD2 = target: T27, PRKD2 (Homo sapiens, UniProt Q9BZL6); assay: KINOMEscan; type: binding; conditions: read-out: % Ctrl
T27 construct: purchased DiscoveRx KINOMEscan

T23 sequence (P21709 26-976): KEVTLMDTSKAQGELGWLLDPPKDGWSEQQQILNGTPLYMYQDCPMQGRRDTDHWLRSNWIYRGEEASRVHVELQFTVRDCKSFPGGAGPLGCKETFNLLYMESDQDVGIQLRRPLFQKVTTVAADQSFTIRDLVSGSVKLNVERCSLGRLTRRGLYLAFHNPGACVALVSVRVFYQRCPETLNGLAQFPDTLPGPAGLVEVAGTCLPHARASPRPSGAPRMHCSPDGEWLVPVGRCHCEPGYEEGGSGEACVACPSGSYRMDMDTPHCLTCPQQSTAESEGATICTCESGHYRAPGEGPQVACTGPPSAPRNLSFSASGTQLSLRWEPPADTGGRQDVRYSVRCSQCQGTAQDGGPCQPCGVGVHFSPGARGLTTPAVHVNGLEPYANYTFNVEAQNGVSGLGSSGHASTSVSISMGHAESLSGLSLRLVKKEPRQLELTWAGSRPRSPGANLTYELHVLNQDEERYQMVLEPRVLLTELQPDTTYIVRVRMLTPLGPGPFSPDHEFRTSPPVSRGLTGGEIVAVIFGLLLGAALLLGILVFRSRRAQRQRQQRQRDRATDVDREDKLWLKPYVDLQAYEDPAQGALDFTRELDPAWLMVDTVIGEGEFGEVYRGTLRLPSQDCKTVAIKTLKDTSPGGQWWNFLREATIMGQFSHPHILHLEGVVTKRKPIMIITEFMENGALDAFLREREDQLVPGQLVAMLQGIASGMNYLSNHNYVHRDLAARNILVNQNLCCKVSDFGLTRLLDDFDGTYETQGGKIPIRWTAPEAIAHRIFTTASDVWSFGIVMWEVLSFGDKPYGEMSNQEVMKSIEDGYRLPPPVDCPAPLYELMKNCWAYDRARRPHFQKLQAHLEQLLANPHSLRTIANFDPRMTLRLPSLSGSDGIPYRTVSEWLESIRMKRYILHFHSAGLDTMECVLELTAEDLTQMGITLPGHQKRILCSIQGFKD
T15 sequence (O14578 whole entry): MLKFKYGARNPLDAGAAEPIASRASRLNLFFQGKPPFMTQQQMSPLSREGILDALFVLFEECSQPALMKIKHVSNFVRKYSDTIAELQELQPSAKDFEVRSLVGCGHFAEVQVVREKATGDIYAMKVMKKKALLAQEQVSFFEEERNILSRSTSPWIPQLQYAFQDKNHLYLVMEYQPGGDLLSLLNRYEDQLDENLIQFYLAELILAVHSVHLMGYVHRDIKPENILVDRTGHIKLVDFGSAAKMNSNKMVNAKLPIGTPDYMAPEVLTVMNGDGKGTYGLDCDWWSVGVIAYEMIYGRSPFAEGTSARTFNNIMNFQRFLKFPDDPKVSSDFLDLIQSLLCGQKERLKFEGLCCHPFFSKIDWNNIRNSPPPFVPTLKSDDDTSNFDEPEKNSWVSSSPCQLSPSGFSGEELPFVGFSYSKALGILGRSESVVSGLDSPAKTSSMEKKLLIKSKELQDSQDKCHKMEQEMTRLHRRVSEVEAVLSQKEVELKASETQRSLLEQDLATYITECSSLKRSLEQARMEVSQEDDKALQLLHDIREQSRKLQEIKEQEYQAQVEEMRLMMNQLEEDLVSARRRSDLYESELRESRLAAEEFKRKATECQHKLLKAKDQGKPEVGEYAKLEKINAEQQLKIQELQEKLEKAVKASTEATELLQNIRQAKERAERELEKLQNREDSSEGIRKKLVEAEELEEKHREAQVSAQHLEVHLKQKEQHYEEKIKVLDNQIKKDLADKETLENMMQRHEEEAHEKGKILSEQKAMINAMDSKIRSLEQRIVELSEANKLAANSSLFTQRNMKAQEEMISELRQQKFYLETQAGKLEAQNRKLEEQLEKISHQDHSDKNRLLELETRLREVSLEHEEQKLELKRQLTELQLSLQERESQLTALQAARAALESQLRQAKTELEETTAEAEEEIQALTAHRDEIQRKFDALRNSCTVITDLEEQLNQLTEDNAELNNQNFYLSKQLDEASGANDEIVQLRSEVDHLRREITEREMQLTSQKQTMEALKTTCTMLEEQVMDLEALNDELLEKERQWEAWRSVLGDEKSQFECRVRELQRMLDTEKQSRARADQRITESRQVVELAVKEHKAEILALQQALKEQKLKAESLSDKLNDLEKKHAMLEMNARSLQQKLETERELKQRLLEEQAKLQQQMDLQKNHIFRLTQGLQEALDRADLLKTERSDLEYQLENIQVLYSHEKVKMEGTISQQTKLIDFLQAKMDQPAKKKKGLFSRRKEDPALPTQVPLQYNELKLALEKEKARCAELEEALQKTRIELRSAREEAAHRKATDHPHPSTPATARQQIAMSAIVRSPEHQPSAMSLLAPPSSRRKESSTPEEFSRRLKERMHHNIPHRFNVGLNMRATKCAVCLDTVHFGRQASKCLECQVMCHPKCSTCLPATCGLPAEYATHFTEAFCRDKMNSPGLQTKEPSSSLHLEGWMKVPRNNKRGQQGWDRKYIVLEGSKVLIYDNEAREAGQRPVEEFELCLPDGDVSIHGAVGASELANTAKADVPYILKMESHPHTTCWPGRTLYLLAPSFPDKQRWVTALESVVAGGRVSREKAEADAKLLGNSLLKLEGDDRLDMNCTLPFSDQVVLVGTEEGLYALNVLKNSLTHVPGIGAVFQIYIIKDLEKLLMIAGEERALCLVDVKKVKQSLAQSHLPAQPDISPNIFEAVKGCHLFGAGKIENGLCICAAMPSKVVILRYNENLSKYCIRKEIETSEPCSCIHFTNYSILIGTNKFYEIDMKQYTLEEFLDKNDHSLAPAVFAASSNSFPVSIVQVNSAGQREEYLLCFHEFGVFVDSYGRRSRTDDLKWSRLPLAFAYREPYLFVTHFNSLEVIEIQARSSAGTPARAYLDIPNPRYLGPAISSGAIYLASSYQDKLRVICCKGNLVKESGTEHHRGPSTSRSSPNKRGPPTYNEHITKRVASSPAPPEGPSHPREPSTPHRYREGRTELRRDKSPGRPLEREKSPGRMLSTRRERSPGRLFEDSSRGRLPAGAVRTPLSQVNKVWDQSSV
T5 sequence (P32298 whole entry): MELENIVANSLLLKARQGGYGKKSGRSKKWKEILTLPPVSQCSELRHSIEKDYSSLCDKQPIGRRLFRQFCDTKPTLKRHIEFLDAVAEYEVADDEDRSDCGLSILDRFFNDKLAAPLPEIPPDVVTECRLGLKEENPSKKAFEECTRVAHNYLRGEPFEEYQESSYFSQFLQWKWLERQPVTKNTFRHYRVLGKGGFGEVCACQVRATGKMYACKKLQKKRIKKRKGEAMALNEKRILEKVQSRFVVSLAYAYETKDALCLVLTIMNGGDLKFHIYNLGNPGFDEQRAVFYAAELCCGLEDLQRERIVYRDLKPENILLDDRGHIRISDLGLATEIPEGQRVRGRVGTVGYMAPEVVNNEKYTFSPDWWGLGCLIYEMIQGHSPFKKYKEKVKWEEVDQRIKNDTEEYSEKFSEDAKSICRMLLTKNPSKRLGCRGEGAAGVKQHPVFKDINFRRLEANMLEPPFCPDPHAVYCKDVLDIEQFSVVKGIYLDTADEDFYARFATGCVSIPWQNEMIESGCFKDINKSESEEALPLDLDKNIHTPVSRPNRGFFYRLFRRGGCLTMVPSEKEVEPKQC
T18 sequence (P07949 29-1114 V804M): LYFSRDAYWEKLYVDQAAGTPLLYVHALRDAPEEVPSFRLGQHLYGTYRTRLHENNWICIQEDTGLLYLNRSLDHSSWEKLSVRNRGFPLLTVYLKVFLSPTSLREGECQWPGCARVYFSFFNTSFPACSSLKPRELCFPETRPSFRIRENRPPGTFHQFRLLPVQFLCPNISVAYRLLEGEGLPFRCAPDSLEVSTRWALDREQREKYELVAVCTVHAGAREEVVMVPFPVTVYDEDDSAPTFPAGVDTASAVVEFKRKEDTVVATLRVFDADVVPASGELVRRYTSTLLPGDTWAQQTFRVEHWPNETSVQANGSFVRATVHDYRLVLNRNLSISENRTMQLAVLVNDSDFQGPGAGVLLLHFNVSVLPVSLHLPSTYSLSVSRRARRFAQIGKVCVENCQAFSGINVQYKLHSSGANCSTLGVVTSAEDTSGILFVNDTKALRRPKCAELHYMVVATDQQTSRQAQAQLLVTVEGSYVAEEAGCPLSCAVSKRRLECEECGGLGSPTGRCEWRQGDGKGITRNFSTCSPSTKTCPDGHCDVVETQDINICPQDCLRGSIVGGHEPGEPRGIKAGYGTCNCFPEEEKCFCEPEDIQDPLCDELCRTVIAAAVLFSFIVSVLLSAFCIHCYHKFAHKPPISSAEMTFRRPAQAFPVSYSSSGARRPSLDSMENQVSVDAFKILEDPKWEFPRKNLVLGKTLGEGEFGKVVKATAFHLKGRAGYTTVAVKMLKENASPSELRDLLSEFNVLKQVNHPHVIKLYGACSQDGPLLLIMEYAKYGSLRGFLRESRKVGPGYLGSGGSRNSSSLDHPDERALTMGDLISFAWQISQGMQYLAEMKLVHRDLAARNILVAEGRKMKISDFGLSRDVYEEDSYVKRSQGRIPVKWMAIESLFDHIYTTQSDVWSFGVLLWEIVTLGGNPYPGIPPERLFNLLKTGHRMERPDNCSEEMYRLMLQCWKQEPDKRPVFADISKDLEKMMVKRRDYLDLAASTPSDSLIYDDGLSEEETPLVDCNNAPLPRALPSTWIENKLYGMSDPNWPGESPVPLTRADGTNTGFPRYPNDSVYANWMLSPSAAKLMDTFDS
T21 sequence (Q07002 whole entry): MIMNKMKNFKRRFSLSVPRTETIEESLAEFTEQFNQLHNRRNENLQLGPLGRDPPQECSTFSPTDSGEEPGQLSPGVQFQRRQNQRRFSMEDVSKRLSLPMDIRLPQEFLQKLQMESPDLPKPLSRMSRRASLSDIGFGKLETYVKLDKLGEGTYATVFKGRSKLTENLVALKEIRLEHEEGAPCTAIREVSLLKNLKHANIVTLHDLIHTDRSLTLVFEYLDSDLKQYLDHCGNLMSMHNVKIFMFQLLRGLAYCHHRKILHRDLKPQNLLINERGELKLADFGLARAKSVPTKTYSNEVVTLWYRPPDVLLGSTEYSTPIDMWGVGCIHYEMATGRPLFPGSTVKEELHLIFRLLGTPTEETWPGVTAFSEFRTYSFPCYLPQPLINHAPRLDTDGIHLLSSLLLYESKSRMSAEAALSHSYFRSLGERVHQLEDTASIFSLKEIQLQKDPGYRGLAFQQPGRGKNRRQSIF

## CN1CCC(CNc2ccc3ncc(C(=O)Nc4cccc(OC(F)(F)F)c4)n3n2)CC1 [Cpd 2]
PIP5K1C
  remaining binding at 1 µM: 74%
MAP3K15
  remaining binding at 1 µM: 100%
ABL1(F317L)-nonP
  remaining binding at 1 µM: 66%
ROCK1
  remaining binding at 1 µM: 50%
GRK4
  remaining binding at 1 µM: 93%
STK36
  remaining binding at 1 µM: 100%
MEK1
  remaining binding at 1 µM: 95%
PYK2
  remaining binding at 1 µM: 95%
ABL1(M351T)-P
  remaining binding at 1 µM: 100%
LIMK1
  remaining binding at 1 µM: 79%
CAMK2B
  remaining binding at 1 µM: 92%
TRPM6
  remaining binding at 1 µM: 100%
CSNK1G2
  remaining binding at 1 µM: 100%
PIK3CA(H1047Y)
  remaining binding at 1 µM: 96%
CIT
  remaining binding at 1 µM: 60%
ULK2
  remaining binding at 1 µM: 100%
AURKC
  remaining binding at 1 µM: 95%
RET(V804M)
  remaining binding at 1 µM: 97%
HIPK1
  remaining binding at 1 µM: 100%
CAMKK2
  remaining binding at 1 µM: 100%
PCTK3
  remaining binding at 1 µM: 100%
PKN1
  remaining binding at 1 µM: 100%
PDAC2 cells
  percentage of CD133+ cells: reduced
EPHA1
  remaining binding at 1 µM: 100%
NEK2
  remaining binding at 1 µM: 94%
FGR
  remaining binding at 1 µM: 77%
WEE1
  remaining binding at 1 µM: 96%
PRKD2
  remaining binding at 1 µM: 87%
